Source: US5516795A, “Heteroatom substituted propanyl derivatives having 5-lipoxygenase inhibitory activity” (Abbott Laboratories, priority 1994, dated 1996)

Target: T1, 5-Lipoxygenase (Homo sapiens, UniProt P09917)
T1 construct: Human heparinized whole blood was preincubated with test compounds; endogenous in cells; host or cells: human heparinized whole blood (endogenous enzyme of the blood cells)
T1 sequence (P09917 1-674): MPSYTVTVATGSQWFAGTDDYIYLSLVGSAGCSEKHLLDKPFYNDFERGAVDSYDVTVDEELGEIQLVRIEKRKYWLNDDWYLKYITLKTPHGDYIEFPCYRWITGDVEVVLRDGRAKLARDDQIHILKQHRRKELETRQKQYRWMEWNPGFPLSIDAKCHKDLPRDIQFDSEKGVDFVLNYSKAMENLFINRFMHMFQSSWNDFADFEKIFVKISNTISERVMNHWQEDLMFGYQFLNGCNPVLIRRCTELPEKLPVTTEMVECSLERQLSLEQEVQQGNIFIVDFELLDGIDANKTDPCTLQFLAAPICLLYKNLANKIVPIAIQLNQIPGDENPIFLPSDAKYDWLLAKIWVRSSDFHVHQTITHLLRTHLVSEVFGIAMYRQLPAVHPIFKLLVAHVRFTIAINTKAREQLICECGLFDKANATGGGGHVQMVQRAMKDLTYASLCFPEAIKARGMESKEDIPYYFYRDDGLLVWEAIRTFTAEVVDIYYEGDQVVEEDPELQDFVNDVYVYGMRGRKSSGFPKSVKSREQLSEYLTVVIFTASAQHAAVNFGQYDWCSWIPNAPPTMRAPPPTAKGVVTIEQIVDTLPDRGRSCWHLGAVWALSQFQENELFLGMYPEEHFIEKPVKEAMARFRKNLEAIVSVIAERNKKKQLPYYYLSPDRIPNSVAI
Assay: Inhibition of calcium ionophore A23187-induced LTB4 biosynthesis in human whole blood (5-lipoxygenase inhibition)
Type: cell-based
Conditions: A23187 8.3 μM; for inhibition at 0.1 µM: @ 0.10 μM
Experimental: Lipoxygenase Inhibition Determination
Inhibition of leukotriene biosynthesis was evaluated in an assay, involving calcium ionophore-induced LTB4 biosynthesis expressed human whole blood. Human heparinized whole blood was preincubated with test compounds or vehicle for 15 min at 37° C. followed by calcium ionophore A23187 challenge (final concentration of 8.3 μM) and the reaction terminated after 30 min by adding two volumes of methanol containing prostaglandin B2 as an internal recovery standard. The methanol extract was analyzed for LTB4 using a commercially available radioimmunoassay.
In Vitro Inhibitory Potencies of Compounds
of this Invention Against 5-Lipoxygenase from
Stimulated LTB4 Formation in Human Whole Blood

[1] = human whole blood, read-out: In vitro inhibition of 5-lipoxygenase / stimulated LTB4 formation (% printed under head "IC50 (10^-6 M)")

`CO/N=C(/c1cccc(Sc2ccc(N(C)C(=O)N(C)C)cc2)c1)[C@H]1COC(C)(C)O1` [Example 4, Z-(4S)-O-methyl-2,2-dimethyl-4-[(3-(4-(N',N'-dimethylaminocarbonyl-N-methylamino)phenylthioxyl)phenyl)oximinomethyl]-1,3-dioxolane] gave an inhibition at 6.25 µM [1] of 100%.
With `C=CCN(C)c1ccc(Sc2cccc(/C(=N\OC)[C@H]3COC(C)(C)O3)c2)cc1` [Example 3 (E oxime), E-(4S)-O-methyl-2,2-dimethyl-4-[(3-(4-(N-allyl-N-methylamino)phenylthioxyl)phenyl)oximinomethyl]-1,3dioxolane] the IC50 (stimulated LTB4 formation in human whole blood, read-out: IC50 (10^-6 M)) was 0.05 µM.
With `CO/N=C(\c1cc(F)cc(OCc2ccc(N(C)C(C)=O)cc2)c1)[C@H]1COC(C)(C)O1` [Example 2, E-(4S)-O-methyl-2,2-dimethyl-4-[(5-fluoro-3-(4-(N-acetyl-N-methylamino)benzyloxy)phenyl)oximinomethyl]-1,3-dioxolane] the inhibition at 0.2 µM (@ 0.20 μM, human whole blood, read-out: In vitro inhibition of 5-lipoxygenase / stimulated LTB4 formation (% printed under head "IC50 (10^-6 M)")) was 82%.
Compound `CO/N=C(\c1cccc(Sc2ccc(N(C)C(=O)N(C)C)cc2)c1)[C@H]1COC(C)(C)O1` [Example 5, E-(4S)-O-methyl-2,2-dimethyl-4-[(3-(4-(N',N': dimethylaminocarbonyl-N-methylamino)phenylthioxyl)phenyl)oximinomethyl]-1,3: dioxolane] has an inhibition at 0.78 µM (@ 0.78 μM, human whole blood, read-out: In vitro inhibition of 5-lipoxygenase / stimulated LTB4 formation (% printed under head "IC50 (10^-6 M)")) of 100%.
`COC[C@@H](OC)[C@@H](OC)c1cc(F)cc(OCc2ccc(N(C)C(=O)N(C)C)cc2)c1` [Example 14, anti-(1S, 2R)-1-[(5-fluoro-3-(4-(N', N'-dimethylaminocarbonyl-N-methylamino)benzyloxy)phenyl)]-1,2,3-trimethoxypropane] gave an inhibition at 0.1 µM [1] of 49%.
For `C=CCN(C)c1ccc(Sc2cccc(/C(=N/OC)[C@H]3COC(C)(C)O3)c2)cc1` [Example 3 (Z oxime), Z-(4S)-O-Methyl-2,2-dimethyl-4-[(3-(4-(N-allyl-N-methylamino)phenylthioxyl)phenyl)oximinomethyl]-1,3-dioxolane], the inhibition at 6.25 µM [1] was 99%.
`CO/N=C(\c1cc(F)cc(OCc2ccc(N(C)C(=O)N(C)C)cc2)c1)[C@H]1COC(C)(C)O1` [Example 1, E-(4S)-O-methyl-2,2-dimethyl-4-[(5-fluoro-3-(4-(N',N'-dimethylaminocarbonyl-N-methylamino)benzyloxy)phenyl)oximinomethyl]-1,3-dioxolane] showed an inhibition at 0.1 µM [1] of 100%.
